Source: US20050256132A1, “Use of ER selective NF-kB inhibitors for the treatment of sepsis” (priority 2003, published 2005)
Several values for one entry are separate records, joined by “and”; a condition that tells them apart may be missing. Equal values may be shown once. Read-outs that look alike come from different tables or passages of the source.

Test system: ER/IL-6
Assay: Endothelial Cell ER/IL-6 Assay, IL-6 promoter luciferase (Table 2)
Format: cell-based, human
Conditions: ERα infected HAECT-1 cells, IL-1β; for IC50: read-out: IL6 luc IC50; for Emax: read-out: IL6 luc % Efficacy
Protocol: T-175 flasks of 100% confluent HAECT-1 cells (immortalized human aortic endothelial cells) were washed with 8 ml of HBSS (HEPES buffered saline solution) and infected for fours hours with 6 ml of a 1:10 dilution of Ad5-wt-hERα virus (an adenovirus transfection vector that mediates CMV promoter driven expression of human ERα) in phenol red free Endothelial Cell Basal medium (Clonetics, San Diego, Calif., Catalog # CC-3129) containing 0.25% bovine serum albumin (EDM-BSA). After four hours, cells were washed with EDM-BSA and incubated overnight in the same medium. Following overnight incubation, cells were washed with EDM-BSA and infected for 2 hours with 6 ml of a 1:10 dilution of Ad5-3x(NFκB).Luc virus (Adenovirus luciferase expression vector driven by three repeats of the MHC NFκb sites 5′ to the thymidine kinase promoter) in EDM-BSA. After two hours, cells were washed and incubated at 34° C. for one hour. Cells were then washed, trypsinized, counted, and resuspended in 95% FBS/5% dimethylsulfoxide at a concentration of […], frozen as 1 or 5 ml aliquots in cryo-vials and stored at −150° C. Control (no ER infection) cells were processed as above without Ad5-wt-hERα virus infection.
ERα infected HAECT-1 cells or control cells were thawed, diluted 42× in warm EBM-BSA, plated into 96-well plates at 0.1 ml/well and incubated for 4 hours at 34° C. Test compounds were added to the cells at 2× stocks in EBM-BSA containing 2 ng/ml IL-1β Ad6-IL-6(1250 bp).Luc virus and plates were returned to the incubator (34° C.). After […], cells were lysed with 50 μl of Promega Cell Culture Lysis reagenet for about 5 minutes at room temperature on a shaker. After lysing, 15 μl of lysate is transferred to luminometer plates for luciferase determination. Luciferase activity is evaluated using a Perkin Elmer Victor2 1420 multilabel counter. Creatine kinase was determined from the rate of increase in A340 following addition of 100 μl of CK assay reagent (Sigma catalog no. 47-10) to the remainder of the cell lysate.
For IC50 and EC50 calculations, mean IL-6, luciferase or CK values versus log10 of the compound concentration were fitted to a four parameter logistic equation. The IC50/EC50 value, ‘Hill slope,’ upper and lower limits of the curve were iteratively estimated.

For `COC[C@@](C#N)(C(=O)N1CCN(CCN2CCOCC2)CC1)[C@@H](c1ccccc1OC)c1cccc2ccccc12` [Example 219, (RR,SS)-2-(methoxymethyl)-3-(2-methoxyphenyl)-2-{[4-(2-morpholin-4-ylethyl)piperazin-1-yl]carbonyl}-3-(1-naphthyl)propanenitrile], which “IL6 luc % Efficacy” value is on record?
The value was 74%.

And the IC50?
The IC50 was 1400 nM.

How did the Emax (Homo sapiens, HAECT1) turn out when `COc1ccccc1C(c1cnc2ccccc2c1)C(C)(C#N)C(=O)N1CCC(c2cccc(C(F)(F)F)c2)CC1` (centres unmarked) [Example 164, 3-(2-Methoxyphenyl)-2-methyl-3-quinolin-3-yl-2-({4-[3-(trifluoromethyl)phenyl]piperidin-1-yl}carbonyl)propanenitrile] was run?
The Emax was 48%.

And the IC50 (Homo sapiens, HAECT1)?
Its IC50 is 32 nM.

For `COc1ccccc1[C@@H](c1cccc2ccccc12)[C@@](C#N)(Cc1cccnc1)C(=O)OC(C)(C)C` [Example 179, tert-Butyl (RR,SS)-2-cyano-3-(2-methoxyphenyl)-3-(1-naphthyl)-2-(pyridin-3-ylmethyl)propanoate], which “IL6 luc % Efficacy” value is on record?
Its value is 128%.

What about the IC50 of the same compound?
Its IC50 is 151 nM.

What does the source list for `COc1ccccc1[C@@H](c1cccc2ccccc12)[C@@](C#N)(Cc1cccnc1)C(=O)NCC(C)(C)C` [Example 176, (RR,SS)-2-cyano-N-(2,2-dimethylpropyl)-3-(2-methoxyphenyl)-3-(1-naphthyl)-2-(pyridin-3-ylmethyl)propanamide]?
IL6 luc % Efficacy: 71%; IC50: 413 nM

`COC[C@](C#N)(C(=O)N1CCN(C2CCCCC2)CC1)[C@H](c1ccccc1OC)c1cccc2ccccc12` [Example 221, (2S,3S)-3-(4-cyclohexylpiperazin-1-yl)-2-(methoxymethyl)-2-[(2-methoxyphenyl)(1-naphthyl)methyl]-3-oxopropanenitrile] was tested. Which “IL6 luc % Efficacy” value did it give?
The value was 159% and 245% and 174%.

How did the Emax (Homo sapiens, HAECT1) turn out when `COCCOC[C@@](C#N)(C(=O)OC)[C@@H](c1ccccc1OC)c1cccc2ccccc12` [Example 159, Methyl (2R,3R)-2-cyano-2-[(2-methoxyethoxy)methyl]-3-(2-methoxyphenyl)-3-(1-naphthyl)propanoate] was run?
Its Emax is 95%.

What about the IC50 (Homo sapiens, HAECT1) of the same compound?
Its IC50 is 273 nM.

Which IC50 (Homo sapiens, HAECT1) does the source give for `COC(=O)[C@@](C#N)(CCN1CCOCC1)[C@H](c1ccccc1OC)c1cccc2ccccc12` (relative stereo) [Example 147, Methyl (2S*)-2-cyano-2-[(S*)-(2-methoxyphenyl)(1-naphthyl)methyl]-4-morpholin-4-ylbutanoate] here?
The IC50 was 12 nM.

With `COc1ccccc1[C@H](c1cccc2ccccc12)[C@@](C)(C#N)C(=O)N1CCC(O)(c2cccc(C(F)(F)F)c2)CC1` [Example 140, (2S)-3-{4-hydroxy-4-[3-(trifluoromethyl)phenyl]piperidin-1-yl}-2-[(S)-(2-methoxyphenyl)(1-naphthyl)methyl]-2-methyl-3-oxopropanenitrile] as the compound, how does the Emax (Homo sapiens, HAECT1) read?
Its Emax is 125%.

And the IC50 (Homo sapiens, HAECT1)?
Its IC50 is 324 nM.

What does the source list for `COCC(C#N)(C(=O)NC(C)(C)C)C(c1ccccc1OC)c1cccc2ccccc12` (stereo not drawn) [Example 180, (RR,SS)-N-(tert-butyl)-2-cyano-2-(methoxymethyl)-3-(2-methoxyphenyl)-3-(1-naphthyl)propanamide]?
IL6 luc % Efficacy: 119%; IC50: 200 nM

`COCCOC[C@@](C#N)(C(=O)N1CCN(c2cnccn2)CC1)[C@@H](c1ccccc1OC)c1cccc2ccccc12` [Example 171, (RR,SS)-2-[(2-methoxyethoxy)methyl]-3-(2-methoxyphenyl)-3-(1-naphthyl)-2-[(4-pyrazin-2-ylpiperazin-1-yl)carbonyl]propanenitrile] was tested. Which “IL6 luc % Efficacy” value did it give?
Its value is 54%.

And the IC50?
The IC50 was 337 nM.

What does the source list for `COCCOC[C@@](C#N)(C(=O)N1CCC(c2cccc(C(F)(F)F)c2)CC1)[C@@H](c1ccccc1OC)c1cccc2ccccc12` [Example 168, (RR,SS)-2-[(2-Methoxyethoxy)methyl]-3-(2-methoxyphenyl)-3-(1-naphthyl)-2-({4-[3-(trifluoromethyl)phenyl]piperidin-1-yl}carbonyl)propanenitrile]?
IL6 luc % Efficacy: 68%; IC50: 37 nM
